Results on five molecules are retold here after paper PMC9234963, “Optimizing Shape Complementarity Enables the Discovery of Potent Tricyclic BCL6 Inhibitors” (Journal of Medicinal Chemistry, 2022).

Where “and” joins values, the source holds several entries; their conditions need not be identical. Equal entries are not always repeated. Where two headings read alike, the source gives them in different places.

One data set relates to OCI-Ly3. Nature of the data set: Cell proliferation assay (14 days, CellTiter Glo), OCI-Ly3. The format is cell-based. Particulars: Homo sapiens, BCL6-low line. As to the method:
(§1) After a short centrifugation the plates
(§2) The % inhibition at each test
(§3) 2.3 Cell proliferation assay
(§4) Compounds were initially dispensed into 96- […]
(§5) medium and transferred onto the cells.
(§6) The volume of medium containing 2500 cells in the control well was calculated and this volume of cells was transferred from every well of the assay plates to the corresponding well of the fresh plates containing compound. After 14 days, CellTiter Glo reagent (Promega) was added to the medium in each well of the assay plate at a ratio of 1:2, mixed on a plate shaker, then incubated at room temperature for 10 minutes. Luminescence was measured using an Envision plate reader (Perkin Elmer) and the relative luminescence at each compound concentration, compared to DMSO alone, was calculated. GI50 were determined using a 4-parameter curve fit in Dotmatics (Bishops Stortford, UK).
(In general: ATP-based viability assays read luminescence as a measure of living cells.)

The target in the next data set is human BCL6 BTB domain (Homo sapiens, UniProt P41182). Nature of the data set: biochemical. The conditions noted are these: for BCL6 TR-FRET mean pIC50: mean of replicates. The text has this:
6. Supplementary tables … S-17
Table S1: summary statistics and individual replicate values … S-17 […]
1. Supplementary experimental: protein production, purification and crystallography 1.1 BCL6 constructs used for assays and crystallography
A first construct of BCL6 BTB domain, which we will refer to as Trx-6His-HRV3C-BCL6, was obtained […]
3C protease cleavage site. For the TR-FRET assay, the Trx-6His-HRV3C-BCL6 protein construct was […]
used without cleaving the tag, as a 6His was needed to bind to the anti-6His-Terbium antibody. […]
For both plasmid constructs described above, transformed BL21-AI E. coli cells were grown in LB […]
carried out at 18 °C for 18 hours. Cells were harvested by centrifugation (5500 g for 30 minutes at 4 […]
oC) and stored at -80 °C.
2. Supplementary experimental: biological assay conditions
IC50 values were determined using […]
a sigmoidal four-parameter logistic fit equation.
Individual replicates shown in supplementary
On the technique in general: TR-FRET usually uses a lanthanide donor and a delayed reading to cut background.

The test system of a further data set is OCI-Ly1. As to the kind of experiment: Cell proliferation assay (14 days, CellTiter Glo), OCI-Ly1. The format is cell-based. The conditions noted are these: Homo sapiens, BCL6-high line. As to the method:
as §1, §2, §3, §4, §5, §6

A further data set deals with Karpas 422. Nature of the data set: Cell proliferation assay (14 days, CellTiter Glo), Karpas 422. Type of data set: cell-based. The conditions noted are these: Homo sapiens, KARPAS-422, read-out: Karpas 422 GI50, BCL6-high line. As to the method: as §1, §2, §3, §4, §5, §6
The nature of data set [1]: HPLC kinetic solubility assay. The conditions noted are these: kinetic solubility by HPLC, 10 mM phosphate-buffered saline pH 7.4, 1% DMSO. The format is physicochemical. As to the method: 3.2 HPLC solubility assay
DMSO. Following shaking of the suspension on a Bohdan Shaker at 500 rpm for 2 hours at room […]
200 µL of the supernatant was transferred to a 2 mL Agilent vial containing 50 µL of DMSO (Sigma […]
detection using an external standard which was prepared by pipetting 10 µL of the same batch of […]
The detail of the HPLC method is as following: chromatographic separation at 30°C is carried out over a 5 minute gradient elution method from 90:10 to 10:90 water:methanol (both modified with 0.1% formic acid) at a flow rate of 1.5 mL/min. Calibration curve is prepared by injecting 0.5, 2.5, and 5 µL of compound external standard.
62.5 µL of compound solubility sample. […]

The nature of a further data set: PAMPA permeability. The conditions noted are these: pH 7.4. For orientation: In PAMPA a lipid-coated filter parts donor from acceptor wells.
For data set [2] the following is noted: cited from earlier work.
The mark [3] stands for this setting: BCL6 TR-FRET IC50 individual replicates, single replicates, 10 nM BCL6 for early examples, else 1 nM.
[4] abbreviates: read-out: BCL6 TR-FRET IC50, geometric mean of replicates.
Setting [5] is: read-out: BCL6 TR-FRET IC50 individual replicates, single replicates, 10 nM BCL6 for early examples, else 1 nM.

Usually GI50 stands for the concentration at which growth is held to half of that of the control. In general, IC50 refers to the point on the concentration scale where inhibition reaches its midpoint. As to `Cn1c(=O)c2c(c3cc(Nc4ccnc(Cl)c4C#N)ccc31)N[C@@H](C1CC1)C(F)(F)CO2` [Compound 1, (S)-2-Chloro-4-((2-cyclopropyl-3,3-difluoro-7-methyl-6-oxo-1,2,3,4,6,7-hexahydro-[1,4]oxazepino[2,3-c]quinolin-10-yl)amino)nicotinonitrile], the 50% growth inhibitory concentration (GI50) worked out at 3400 nM in the data set with OCI-Ly3, 170 nM in the data set on OCI-Ly1 and 190 nM in the data set with Karpas 422. The IC50 against human BCL6 BTB domain (setting [3]) is 2.9 nM (3×) and 2.4 nM and 16.2 nM; at human BCL6 BTB domain (read-out: BCL6 TR-FRET IC50, Figure 1), 4 nM and 3.9 nM; at human BCL6 BTB domain (setting [4]), 3.9 nM; at human BCL6 BTB domain (setting [5]), 3.9 nM. For the same molecule, the “BCL6 TR-FRET mean pIC50” value at human BCL6 BTB domain was 8.40 and 8.41.

With `CCNc1cc(=O)[nH]c2ccc(Nc3ccnc(Cl)c3C#N)cc12` [Compound 2], the “Aq. Sol” value in data set [1] came out at 9.7 µM. The IC50 against human BCL6 BTB domain (BCL6 TR-FRET IC50, geometric mean of replicates) is 1200 nM; on human BCL6 BTB domain (setting [4]) it was 1310 nM and 1300 nM. The “BCL6 TR-FRET mean pIC50” value on human BCL6 BTB domain came to 5.88. The “PAMPA Pe (7.4)” value in the data set “PAMPA permeability” was <0.1 × 10^–6 cm s^–1.

As to `Cn1c(=O)cc(NC(C)(C)c2ncc(C3CC3)cn2)c2cc(Nc3ccnc(Cl)c3C#N)ccc21` [Compound 3], in data set [1], the “Aq. Sol” value is 31 µM. Also, the “BCL6 TR-FRET mean pIC50” value at human BCL6 BTB domain was found to be 7.58. Also, the half-maximal inhibitory concentration (IC50) on human BCL6 BTB domain (setting [4]) is 26 nM; at human BCL6 BTB domain (setting [5]), 25.5 nM and 33.1 nM and 41 nM and 22.6 nM and 15.6 nM. The “PAMPA Pe (7.4)” value in the data set “PAMPA permeability” is 35 × 10^–6 cm s^–1. For the same molecule, the concentration for 50% growth inhibition (GI50) with Karpas 422 came to 3320 nM. Besides, the “passive permeability” value in data set [2] was “high”.

One may read the Papp as a coefficient for how fast a substance crosses the barrier. Read a high Papp as fast passage. `C[C@H]1COC(=O)c2c(c3cc(Nc4ccnc(Cl)c4C#N)ccc3n(C)c2=O)N1` [Compound 7, (S)-2-Chloro-4-((2,7-dimethyl-5,6-dioxo-1,2,3,5,6,7-hexahydro-[1,4]oxazepino[6,5-c]quinolin-10-yl)amino)nicotinonitrile]: the half-maximal inhibitory concentration (IC50) on human BCL6 BTB domain (setting [3]) was 153 nM and 151 nM and 56 nM and 58 nM; at human BCL6 BTB domain (setting [4]), 94 nM; on human BCL6 BTB domain (setting [5]) it was 98 nM. Further, the “BCL6 TR-FRET mean pIC50” value at human BCL6 BTB domain came to 7.03. The molecule further displayed a Papp in “PAMPA permeability” (PAMPA) of less than 0.2 ×10⁻⁶ cm/s.

Take `Cn1c(=O)c2c(c3cc(Nc4ccnc(Cl)c4C#N)ccc31)NCCCO2` [Compound 10, 2-Chloro-4-((7-methyl-6-oxo-1,2,3,4,6,7-hexahydro-[1,4]oxazepino[2,3-c]quinolin-10-yl)amino)nicotinonitrile]: the “Aq. Sol” value in data set [1] turned out to be 12 µM. The IC50 was 15600 nM and 22400 nM against human BCL6 BTB domain (setting [3]); 18700 nM and 19000 nM at human BCL6 BTB domain (setting [4]). In addition, the “BCL6 TR-FRET mean pIC50” value at human BCL6 BTB domain was found to be 4.73.
